Measurements: patent US20250161399A1, “TARGETING SLC46A2-MEDIATED MUROPEPTIDE TRANSPORT TO TREAT PSORIASIS” (University of Massachusetts, priority 2021, published 2025)
Entries after “also recorded” stand apart in the source; their conditions may differ. Peptide text beside a SMILES is read from it. * marks the point of attachment. Cbz = O=C(OCc1ccccc1)*; CH2F = FC*

Assays:
[1] = tested on: mouse skin (NOD1/NOD2 response); test: neutrophil recruitment to pinnae after intradermal injection; type: in vivo; settings: for neutrophil recruitment response in Slc46a2-deficient mice compared to WT: Tri-DAP 25 μM, C12-iE-DAP 20 μM
Method: […] After 3 h, both ears were individually harvested, and stored in ice cold PBS on ice until further processing for flow cytometry staining.
Pinnae were cut into small pieces and incubated for 30 min at 37° C. in a solution of 1 mg/ml collagenase (Sigma) in DMEM media containing 10% FBS. Ice-cold FACS buffer (2% FBS in PBS) was added to skin samples to stop the reaction. Then samples were placed on 70 μm cell strainers and ground using a cell strainer pestle to create a single cell suspension. Cells were spun at 180 g for 5 min at 4° C. and resuspended in FACS buffer.
(§1) 1×10^6 cells were stained with F4/80-PE/Cy7 (1:200), CD45-alexaflour700 (1:200) and Gr1-PE (1:200) for 30 min on ice in the dark. Samples were washed three times with FACS buffer and analyzed with a Cytek Aurora cytometer. Results were analyzed with FlowJo software (Tree Star, USA).

[2] = tested on: mouse peritoneum (NOD1/NOD2 response); test: neutrophil recruitment to the peritoneum after intraperitoneal injection; type: in vivo; settings: 3 h, iE-DAP 30 μM, MDP 10 μM
Method: For peritoneal cell extraction, animals were euthanized and cells from peritoneal cavity were isolated by peritoneal lavage (58). Harvested cell suspensions were centrifuged at 300 g for 5 min at 4° C. and resuspended in FACS buffer.
as §1

[3] = tested on: psoriasis-like inflammation on mouse pinnae; test: IMQ model of psoriasis-like dermatitis (ear thickness, H&E histology); type: in vivo
Method: Pinnae were harvested 3 h after DAP-muropeptide administration or 7 d after topical application of IMQ and fixed in PBS containing 10% formalin. Paraffin-embedded sections were cut at […], stained with H&E, and imaged by light microscopy.
The induction of psoriasis-like inflammation on mouse pinnae was done as previously described (60). In brief, mice were treated daily for up to 6 d with 5 mg 5% IMQ cream topically applied on one pinna, while the other pinnae were treated with a similar amount of Vaseline, as vehicle control. Ear thickness was measured daily using a digital caliper. The change in ear thickness over time was reported as the difference related to the first day of topical application. For the bacterial assisted psoriasis model, 5 mg 5% IMQ cream was topically applied on one pinna, while the contralateral pinna was treated with a similar amount of Vaseline for 3 days, and then 10^7 CFU of C. accolens, in 50% glycerol, was topically applied daily to both pinnae. Ear thickness was measured daily using a digital caliper. C. accolens, originally from ATCC, was provided by J. Kang and grown as described (61).

[4] = tested on: primary mouse keratinocytes; test: keratinocyte cell permeabilization assay (Sytox dye uptake, live cell imaging); type: cell-based; settings: WT keratinocytes, 30 μM iE-DAP, 24 h; MTX increasing concentration, zVAD-fmk 10 μM, DMF 50 μM
Method: (§2) Adult (6-8 weeks) mouse keratinocytes were isolated from male or female animals using protocols described previously (57). In brief, tail skin was incubated in 1 mg/ml Dispase II (Roche) overnight at 4° C. The epidermis was physically removed from the dermis with tweezers following Dispase II treatment, subsequently digested with TrypLE (Thermo) for 20 min at room temperature, and keratinocytes were detached by vigorously shaking in EpiLife culture medium and filtered with a 70 μm strainer (Fisher scientific). Isolated cells were seeded at a density of 10^5 cells/cm^2 cultured with EpiLife (Gibco) in 12-well plates precoated with coating matrix (Gibco) and used between 3 and 5 days after isolation.
For cell permeabilization assays, 1×10^5 keratinocytes/well were seeded in a 96-well plate (Denville Scientific Inc.). After reaching 80% confluency, 30 μM iE-DAP was added to culture media with 1 nM Sytox red dye (Thermo) and 0.2 nM hoechst stain (Thermo). Plates were then cultured in a Cytation5 (BioTek) live imaging device and each well was imaged every 30 min for 24 hours. For analysis, Gen5 software were used to count the total number of Hoechst-stained nuclei and the total number of permeabilized cells were quantified as the number of Sytox positive nuclei. The Percentage of Sytox^+ cells was then calculated and plotted.

[5] = tested on: primary mouse keratinocytes; test: cytokine ELISAs from primary keratinocyte culture media; type: cell-based
Method: as §2
For cytokine ELISAs, primary keratinocytes were either mock-treated or treated with 8 μM TCT or 30 μM iE-DAP for 24 h Culture medium was harvested and centrifuged at 500 g for 15 mins and analyzed using ELISA kits detecting CXCL1 (KC), IL-6, TNF-α, IL-1α and IL-1β (R&D systems) following the manufacturer's protocols. In brief, 96-well ELISA plates were coated with capture antibody overnight at room temperature. The next day, the plate was washed three times with wash buffer and incubated with harvested media (100 μl) for 2 h followed by three washes and then probed with biotin-labelled detection antibody for 2 h. After three washes with wash buffer, plates were incubated with HRP-streptavidin for 20 min at room temperature (RT), developed with TMB (3,3′,5,5″-tetramethylbenzidine) substrate for 20 min at RT, and then stopped with IN sulfuric acid. Plate was analyzed at 450 nm with wavelength correction at 540 nm.

Slc46a2 = molecular target: T1, Slc46a2 (Mus musculus, UniProt Q8CA03); test: click-muropeptide uptake into keratinocytes (CalFluor 488 Azide, confocal imaging and lysate fluorescence); type: cell-based; settings: WT or Nod1−/− keratinocytes, 30 μM click-iE-DAP; MTX 250 μM or unlabeled iE-DAP 30 μM
T1 construct: primary mouse keratinocytes, which express Slc46a2 and Nod1; endogenous in cells; host or cells: primary mouse epidermal keratinocytes (WT or Nod1-/-; Slc46a2-/- cells served as the negative control)
T1 sequence (Q8CA03 1-479): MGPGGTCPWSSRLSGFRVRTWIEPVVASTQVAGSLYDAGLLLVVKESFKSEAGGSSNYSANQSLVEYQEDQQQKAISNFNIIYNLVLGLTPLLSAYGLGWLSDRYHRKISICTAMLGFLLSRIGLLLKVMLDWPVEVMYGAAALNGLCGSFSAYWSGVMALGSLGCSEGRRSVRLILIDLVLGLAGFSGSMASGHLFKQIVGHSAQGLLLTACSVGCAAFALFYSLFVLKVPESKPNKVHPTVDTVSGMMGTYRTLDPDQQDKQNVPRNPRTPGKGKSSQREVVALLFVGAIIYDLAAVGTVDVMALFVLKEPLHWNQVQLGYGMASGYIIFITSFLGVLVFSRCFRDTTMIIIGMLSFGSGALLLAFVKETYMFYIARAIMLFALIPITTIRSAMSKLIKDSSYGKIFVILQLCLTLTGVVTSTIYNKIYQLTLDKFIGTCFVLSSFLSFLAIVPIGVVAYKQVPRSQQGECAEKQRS
Method: For visualization, mouse keratinocytes were challenged with click-iE-DAP (30 μM) or click-MDP (20 μM) 37° C. for 30-60 min, cells washed 2× with 1×PBS to remove access of click-muropeptides and fixed with 4% paraformaldehyde in PBS at RT for 10 min. Cells were permeabilized with 1% Triton-X in PBS for 10 min at RT and blocked with 1% BSA in PBS. These permeabilized cells were then incubated in click-reaction conditions (250 μM CuSO4, 35 μM BTAA, 60 μM sodium ascorbate) with 2.5 μM CalFluor 488 Azide at RT for 30 mins. Cells were then washed and mounted on slides, with DAPI containing mounting media. Slides were imaged with a Leica SP8 confocal microscope.

[6] = tested on: primary mouse keratinocytes; test: lipid nanoparticle (NP) mediated iE-DAP/dye delivery into keratinocytes; type: cell-based; settings: keratinocytes pretreated with 250 μM MTX, iE-DAP delivered by dye-loaded NP
Method: Briefly, a matrix of DOPC/DSPC/DOPG/cholesterol/DSPE-mPEG at 33.5/33.5/20/10/3 mol % was prepared in chloroform and dry lipid/cholesterol films were allowed to form. Films were rehydrated with iE-DAP (Invivogen) prepared in PBS at 1.2 mg/mL and these samples were vortexed for 30 sec every 10 min for 1 hr at 56° C. to complete this process. Following rehydration, samples were ultrasonicated in alternating 20 sec pulse/10 sec off cycles for 5 min at an amplitude of 20% to form iEDAP-encapsulated lipid-based NPs. Samples were dialyzed for 1 hr following ultrasonication. Dynamic light scattering (DLS) and zeta potential measurements using a Malvern Zetasizer were used to characterize NP size and surface charge, respectively. […] Quant-IT assay (Thermo Fisher Scientific) measurements were used to measure average iE-DAP encapsulation at 998.1 μg/mL and an average encapsulation efficiency of 57.1%. To visualize iE-DAP-encapsulated NPs, 0.1 mol % of the fluorescent lipid tracer dye 3,3′-dioctadecyloxacarbocyanine perchlorate (DiO) were added to the lipid/cholesterol films. Mouse keratinocytes were challenged iE-DAP loaded NPs, or control empty NPs, at 37° C. at 10 μg/ml final concentration (˜30 μM iE-DAP), and then monitored for Sytox uptake assay for 24 h, as described above. […]

[7] = tested on: HSE dermal fibroblasts (CXCL8); test: CXCL8 induction in Human Skin Equivalents (HSE) skin organoids; type: cell-based; settings: concomitant treatment with iE-DAP
[8] = tested on: primary dermal fibroblasts; test: CXCL1 (KC) ELISA from primary dermal fibroblasts; type: cell-based, mouse; settings: iE-DAP 30 μM or IL-1α 10 ng/ml, 24 hrs
Method: Mouse dermal fibroblasts were isolated as described herein. In brief, mouse pinnae were incubated on a table shaker (200 rpm) in a collagenase D-pronase solution [2.5 mg/ml collagenase-D (Sigma), 20 mg/ml pronase (Sigma) diluted in 1M Tris, pH 8.0 and containing 1 μM EDTA (Sigma)] for 90 min at 37° C. Fibroblasts were then isolated by pressing digested skin through a 70 μm cell strainer, and cells were collected and cultured in RPMI 1640 medium with 10% FBS, 50 μM 2-mercaptoethanol, 100 μM asparagine, 2 mM glutamine, 1% penicillin-streptomycin for 2-4 passages before stimulating with immune elicitors, and/or harvesting media or cells.
For cytokine ELISAs from dermal fibroblast, cells were challenged with IL-1α (10 ng/ml) or 30 μM iE-DAP for 24 h, and media was collected and processed for ELISA as described above.

[9] = intradermal, 3 h, TCT 8 μM, iE-DAP 30 μM, MDP 10 μM

## CC(=O)N[C@H]1C(O)O[C@H](CO)[C@@H](O)[C@@H]1O[C@H](C)C(=O)N[C@@H](C)C(=O)N[C@H](CCC(=O)O)C(N)=O (mixture of isomers) [MDP, muramyl dipeptide]
[1]; intradermal, 3 h, MDP 10 μM
  neutrophil recruitment response in Slc46a3−/− mice: significantly defective
[1]; [9]
  neutrophil recruitment response in Slc46a2-deficient mice compared to WT: responded normally
[2]
  neutrophil recruitment response in Slc46a2−/− mice: responded like wild-type
  neutrophil recruitment response in Slc46a3−/− mice: failing to respond

## CCCCCCCCCCCC(=O)N[C@H](CCC(=O)NC(CCCC(N)C(=O)O)C(=O)O)C(=O)O (stereo partly shown) [C12-iE-DAP]
[1]; [9]
  neutrophil recruitment response in Slc46a2-deficient mice compared to WT: not significantly changed

## CC(C)Cn1cnc2c(N)nc3ccccc3c21 [IMQ, imiquimod]
[3]; 7-day course of topical IMQ
  inflammation in Slc46a2- and Nod1-deficient mice: markedly resistant
[3]; 7-day course of topical IMQ, WT mice
  inflammation in WT mice (ear thickness, H&E histology): expected psoriatic-like inflammation

## CN(Cc1cnc2nc(N)nc(N)c2n1)c1ccc(C(=O)N[C@@H](CCC(=O)O)C(=O)O)cc1 [MTX, methotrexate]
[4]
  inhibition of DAP-muropeptide triggered keratinocyte permeabilization (Sytox uptake): inhibited
[5]; 250 μM MTX along with 30 μM iE DAP, 24 hours
  IL-1α release in iE-DAP treated WT keratinocytes: prevented
[5]; keratinocytes, iE-DAP, increasing concentrations of MTX, dose dependent
  inhibition of DAP-muropeptide triggered IL-1α release: inhibited
Slc46a2
  effect on cytosolic accumulation / cellular uptake of click-iE-DAP: blocked; also recorded: interfered
[6]
  effect on NP-mediated iE-DAP / dye delivery: failed to interfere; also recorded: did not affect
[3]; Slc46a2−/− and Nod1−/− mice, IMQ daily with topical 50 μl of 250 μM MTX
  residual inflammation in Slc46a2−/− and Nod1−/− skin: no observable effect; also recorded: minimalistic effect
[3]; WT mice, IMQ daily with topical 50 μl of 250 μM MTX
  psoriasis like inflammation in WT skin: reduced; also recorded: less inflamed

## C[C@H](N)C(=O)N[C@H](CCC(=O)NC(CCCC(N)C(=O)O)C(=O)O)C(=O)O (stereo partly shown) [Tri-DAP]
[1]; [9]
  neutrophil recruitment response in Slc46a2-deficient mice compared to WT: significantly reduced

## COC(=O)C[C@H](NC(=O)[C@H](C)NC(=O)[C@@H](NC(=O)OCc1ccccc1)C(C)C)C(=O)CF [zVAD-FMK] (Cbz-Val-Ala-Asp(OMe)-CH2F)
[4]
  inhibition of DAP-muropeptide triggered keratinocyte permeabilization (Sytox uptake): prevented

## IL-1Ra: recombinant IL-1R antagonist
[7]
  effect on iE-DAP induced CXCL8 in HSE dermis: prevented
[7]; listed as IL-IRA
  effect on iE-DAP induced CXCL8 in HSE dermis: blocked

## tracheal cytotoxin [TCT]
[1]; intradermal 10 μl, TCT 8 μM, LPS 10 μg/ml, iE-DAP 30 μM, 1 to 24 h
  neutrophil / leukocyte recruitment to the skin in WT mice: rapid and robust; also recorded: robust and rapid
[1]; intradermal TCT, monitored between 1 and 24 h
  time of peak leukocyte recruitment: 3 h
[1]; [9]
  neutrophil recruitment response in Slc46a2-deficient mice compared to WT: significantly reduced

B1: IL-1α: cytokine used to challenge dermal fibroblasts (10 ng/ml) (protein, UniProt P01583 113-271, looked up)
Interleukin-1 alpha: SAPFSFLSNVKYNFMRIIKYEFILNDALNQSIIRANDQYLTAAALHNLDEAVKFDMGAYKSSKDDAKITVILRISKTQLYVTAQDEDQPVLLKEMPEIPKTITGSETNLLFFWETHGTKNYFTSVAHPNLFIATKQDYWVCLAGGPPSITDFQILENQA
[8]
  CXCL1 (KC) response of primary dermal fibroblasts: induced
